Results on 14 molecules are retold here after patent publication US7056934B2, “Nicotinamide derivatives useful as PDE4 inhibitors” (Pfizer Inc, priority 2003, dated 2006).

This assay deals with human peripheral blood mononuclear cells. Kind of assay: Inhibition of LPS-stimulated TNFα release from human peripheral blood mononuclear cells (TNFα screen). It is filed as cell-based. To be noted: LPS-stimulated human PBMC, 18 hours incubation, TNFα in supernatant by ELISA. The method, then: Venous blood is collected from healthy volunteers and the mononuclear cells purified by centrifugation through Histopaque (Ficoll) cushions. TNFα production from these cells is stimulated by addition of lipopolysaccharide. After 18 hours incubation in the presence of LPS, the cell supernatant is removed and the concentration of TNFα in the supernatant determined by ELISA.
Molecule `CSc1cccc(Oc2ncc(F)cc2C(=O)N[C@H]2CC[C@@H](NC(=O)c3ccc(CO)cc3O)CC2)c1` [Example 2, Syn-5-Fluoro-N-[4-(2-hydroxy-4-hydroxymethyl-benzoylamino)-cyclohexyl]-2-(3-methylsulfanyl-phenoxy)-nicotinamide] returned an IC50 of 0.6 nM.

Regarding `CSc1cccc(Oc2ncc(F)cc2C(=O)N[C@H]2CC[C@@H](NC(=O)c3cn(CCO)cn3)CC2)c1` [Example 3, Syn-5-Fluoro-N-(4-{[1-(2-hydroxy-ethyl)-1H-imidazole-4-carbonyl]-amino}-cyclohexyl)-2-(3-methylsulfanyl-phenoxy)-nicotinamide], it took 1.6 nM to reach half-maximal inhibition (IC50).

With `CSc1cc(Oc2ncc(F)cc2C(=O)N[C@H]2CC[C@@H](NC(=O)c3ccccc3OCCO)CC2)ccc1F` [Example 9, Syn-5-Fluoro-2-(4-fluoro-3-methylsulfanyl-phenoxy)-N-{4-[2-(2-hydroxy-ethoxy)-benzoylamino]-cyclohexyl}-nicotinamide], it took 0.36 nM to reach half-maximal inhibition (IC50).

In turn, `CSc1cccc(Oc2ncc(F)cc2C(=O)N[C@H]2CC[C@@H](NC(=O)c3cc(C(C)C)n(CCO)n3)CC2)c1` [Example 10, Syn-5-Fluoro-N-(4-{[1-(2-hydroxy-ethyl)-5-isopropyl-1H-pyrazole-3-carbonyl]-amino}-cyclohexyl)-2-(3-methylsulfanyl-phenoxy)-nicotinamide] had a half-maximal inhibitory concentration (IC50) of 2.5 nM.

Turning to “Syn-5-Chloro-N-{4-[2-(2-hydroxy-ethoxy)-benzoylamino]-cyclohexyl}-2-(3-methylsulfanyl-phenoxy)-nicotinamide [Example 18]”, the IC50 was 0.15 nM.

The molecule “Syn-5-Fluoro-N-(4-{[1-(2-hydroxy-ethyl)-1H-pyrazole-3-carbonyl]-amino}-cyclohexyl)-2-(3-methylsulfanyl-phenoxy)-nicotinamide [Example 5]” registered an IC50 of 0.24 nM.

Molecule “Syn-5-Fluoro-N-(4-{[1-(2-hydroxy-ethyl)-1H-pyrazole-4-carbonyl]-amino}-cyclohexyl)-2-(3-methylsulfanyl-phenoxy)-nicotinamide [Example 7]” had a half-inhibitory concentration (IC50) of 4.6 nM.

In the case of “Syn-5-Fluoro-N-(4-{[1-(2-hydroxy-ethyl)-5-methyl-1H-pyrazole-3-carbonyl]-amino}-cyclohexyl)-2-(3-methylsulfanyl-phenoxy)-nicotinamide [Example 8]”, the half-maximal inhibitory concentration (IC50) was found to be 0.2 nM.

With “Syn-5-Fluoro-N-{4-[2-(2-hydroxy-ethoxy)-3-methyl-benzoylamino]-cyclohexyl}-2-(3-methylsulfanyl-phenoxy)-nicotinamide [Example 13]”, the half-maximal inhibitory concentration (IC50) stood at 0.07 nM.

Molecule “Syn-5-Fluoro-N-{4-[2-(2-hydroxy-ethoxy)-4-methyl-benzoylamino]-cyclohexyl}-2-(3-methylsulfanyl-phenoxy)-nicotinamide [Example 12]” had an IC50 of 0.3 nM.

Turning to “Syn-5-Fluoro-N-{4-[2-(2-hydroxy-ethoxy)-5-methyl-benzoylamino]-cyclohexyl}-2-(3-methylsulfanyl-phenoxy)-nicotinamide [Example 11]”, the IC50 was found to be 0.8 nM.

“Syn-N-(4-{[5-Ethyl-1-(2-hydroxy-ethyl)-1H-pyrazole-3-carbonyl]-amino}-cyclohexyl)-5-fluoro-2-(3-methylsulfanyl-phenoxy)-nicotinamide [Example 17]” gave a concentration for half-maximal inhibition (IC50) of 0.05 nM.

Molecule “Syn-N-{4-[4-Chloro-2-(2-hydroxy-ethoxy)-benzoylamino]-cyclohexyl}-5-fluoro-2-(3-methylsulfanyl-phenoxy)-nicotinamide [Example 15]” came in with an IC50 of 1.6 nM.

Regarding “Syn-N-{4-[5-Chloro-2-(2-hydroxy-ethoxy)-benzoylamino]-cyclohexyl}-5-fluoro-2-(3-methylsulfanyl-phenoxy)-nicotinamide [Example 14]”, the IC50 amounted to 0.6 nM.
